Structures are written as SMILES.

Usually melting point stands for the temperature of the solid-liquid transition. As to `Cc1c(F)c(N2CCN(C=O)C(C)C2)cc2c1C(=O)C(C=O)CN2C1CC1` (stereo unspecified), the melting point was in the range of 148 to 150 °C.
Then `O=c1c2ccccc2sc2c(Cl)cc(Cl)c(Oc3ccccc3)c12`, with 197 to 198 °C; and `CSc1nn(-c2c(Cl)cc(Cl)cc2Cl)c(N(C)C)c1CO`, with 108 to 110 °C; and `CN(C)CCC1CCCCN1C1c2ccccc2Oc2ccccc21` (stereo unspecified), with 64 to 67 °C.
With `COC(=O)c1cc(CC(C)NCC(O)c2ccc(O)c(CO)c2)ccc1OC` (stereo unspecified) the figure was 69 to 73 °C; with `Oc1ccccc1Oc1ccc(Cl)cn1`, 97 to 100 °C.
With `N#Cc1ccc(/C=C/S(=O)(=O)CS(=O)(=O)/C=C/c2ccc(C#N)cc2F)c(F)c1` the figure was 268 to 270 °C; with `CCC1Cn2c(ncc(C(=O)O)c2=O)-c2ccccc21` (stereo unspecified), 167 to 169 °C.
Regarding `CC(C)(C)OC(=O)CNC(=O)C(=O)c1cn(Cc2ccccc2)c2ccc(-c3ccc(OC(F)(F)F)cc3)cc12`, the melting point is 167 to 168 °C.
Then `O=C1O[C@@H](CO)CN1c1ccc(N2C[C@@H]3C[C@H]2CS3)c(F)c1`, with 156 to 157 °C.
With `Cc1ncnc(Cl)c1C` the figure was 45 to 47 °C; with `CNCC1CCN(c2ccc(Cl)cc2NC(=O)c2csc3cncnc23)CC1`, 190 to 193 °C; with `COc1ccc(CCn2ccc3ccc(-c4cccc(C(=O)NCCN(C)C)c4)nc32)cc1OC`, 97 to 98 °C.
Then `COC(=O)CC[C@H](NC(=O)c1ccc(OCc2ccccc2)cc1)C(=O)OC`, with 108 to 109 °C.
Turning to `Cc1ccc(S(=O)(=O)OCC2(CO)OC(n3ccc(=O)[nH]c3=O)C(O)C2OCc2ccccc2)cc1` (stereo unspecified), the melting point lay in the range of 195 to 197 °C.
With `Cc1ccc(Oc2ccc(-c3ccn(CC4CC4)c(=O)c3Cl)cc2F)c(C)n1` the figure was 143 °C; with `O=c1c(Cl)nsnc1Sc1ccccc1`, 99.5 to 102 °C; with `CC(C)N(CCCN1C(=O)/C(=N/NC(N)=O)c2ccccc21)C(C)C`, 173 to 175 °C.
Then `O=C(O)C1Oc2ccc3ccccc3c2C=C1C(F)(F)F` (stereo unspecified), with 245 to 250 °C; and `O=C(CBr)Nc1cccc(F)c1C(=O)O`, with 169 to 170 °C; and `CC(C)[C@H](NC(=O)Cc1cc(F)cc(F)c1)C(=O)N[C@@H]1C(=O)Nc2ccccc2S[C@@H]1c1ccccc1`, with 110 to 115 °C.
With `CCC(C#N)=C1CCN(c2ccc(N3C[C@H](CNC(=O)C(Cl)(Cl)Cl)OC3=O)cc2F)CC1` the figure was 150 to 152 °C; with `O=C(O)c1c2nc3cc(Cl)c(Br)cc3c-2[nH]c2ccccc12`, > 243 °C; with `COc1nc(O)cc(=O)n1C`, 170 to 171 °C.
In the case of `O=C(O)CSc1c(Cl)cc2c(-c3ccccc3F)noc2c1Cl`, the melting point turned out to be 165 °C.
`COC(=O)C1=C(C)NC(CO)=C(C(=O)OC)C1c1cccc2c(=O)c(C)c(-c3ccccc3)oc12` (stereo unspecified) yielded a melting point of 231 to 233 °C.
In turn, `COc1ccc(-c2cc(=O)n(CCC(=O)NCc3ccccc3)nc2-c2ccc(OC)cc2)cc1` came in with a melting point of 135 to 137 °C.
In turn, `COc1cc2c(cc1OCc1ccccc1)C(O)CN(Cc1cc(OC)c(OC)c(OC)c1)C2` (stereo unspecified) had a melting point of 126 to 127 °C.
Consider `CS(=O)(=O)c1ccc(-c2nn3c(-c4ccccc4)coc3c2-c2ccc(F)cc2)cc1`, for which the melting point was 151 to 154 °C.
`COC(=O)c1c(-c2ccc(C)cc2)ccnc1O` had a melting point of 222 to 224 °C.
With `CCOC(=O)c1[nH]c(C)c(C)c1CC` the figure was 95 to 97 °C; with `C1=C(c2ccccc2)SCCS1`, 54 to 55 °C; with `CCOC(=O)C1CCCCCCC(=O)C(=O)N1` (stereo unspecified), 129 to 130 °C.
For `Cc1noc(NS(=O)(=O)c2ccccc2)c1-c1ccccc1`, the melting point is 124 to 126 °C.
Then `Cn1c(C(F)(F)F)cc(=O)n(-c2cc(OC(=O)CC#N)c(Cl)cc2F)c1=O`, with 157 to 160 °C; and `Cc1cccc(C)c1-n1cnc(OC(C)C(=O)O)n1` (stereo unspecified), with 178 to 180 °C.

The values above are taken from a melting point compilation (Tetko et al.; mined from patent text by program, amines drawn as free bases though some values may be those of a salt).
